Laboratory results taken from patent US7713971B2, “1,2,4-triazine derivatives, preparation and use thereof in human therapy” (Pierre Fabre Medicament, priority 2005, dated 2010).
Like-named read-outs stand apart in the source and are kept apart here.

Assays:
[1] = biological target: T1, human PPARδ (Homo sapiens, UniProt Q03181); assay: Reporter gene transactivation, hPPAR-GAL4 delta; format: cell-based; conditions: transfected Cos-7 cells, Gal-4 luciferase reporter, 24 hours treatment
T1 construct: expressed in transfected cells; host or cells: Cos-7 cells (ATCC, CRL-1651)
T1 sequence (Q03181 211-439 limits assumed): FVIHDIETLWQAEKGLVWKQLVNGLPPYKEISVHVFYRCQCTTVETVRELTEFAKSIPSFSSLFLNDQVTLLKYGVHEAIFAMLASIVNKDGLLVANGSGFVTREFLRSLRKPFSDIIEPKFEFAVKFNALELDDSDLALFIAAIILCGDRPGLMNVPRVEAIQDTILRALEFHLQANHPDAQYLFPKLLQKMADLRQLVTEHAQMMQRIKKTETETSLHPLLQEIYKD

[2] = biological target: T2, human PPARγ (Homo sapiens, UniProt P37231); assay: Reporter gene transactivation, hPPAR-GAL4 gamma; format: cell-based; conditions: transfected Cos-7 cells, Gal-4 luciferase reporter, 24 hours treatment
T2 construct: expressed in transfected cells; host or cells: Cos-7 cells (ATCC, CRL-1651)
T2 sequence (P37231 238-503 limits assumed): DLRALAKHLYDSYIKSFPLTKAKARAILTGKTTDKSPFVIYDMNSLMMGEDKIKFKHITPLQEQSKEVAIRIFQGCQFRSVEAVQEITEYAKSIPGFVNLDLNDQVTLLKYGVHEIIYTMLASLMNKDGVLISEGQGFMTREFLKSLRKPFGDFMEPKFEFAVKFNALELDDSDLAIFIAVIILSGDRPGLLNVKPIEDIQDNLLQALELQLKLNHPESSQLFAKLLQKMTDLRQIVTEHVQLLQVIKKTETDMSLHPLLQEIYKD

[3] = system: insulin-resistant male rat (Ico: ZUCKER-fa/fa); assay: Normalization of metabolic parameters (cholesterol, plasma triglycerides) in insulin-resistant rat; format: in vivo; conditions: oral route, once per day for four days, Zucker fa/fa rat unfed 16-18 hours; for change in vivo at 10 mg/kg / change in vivo at 2.5 mg/kg: 96 h
Protocol: Normalization of metabolic parameters (cholesterol, plasma triglycerides) in an insulin-resistant male rat (Ico: ZUCKER-fa/fa), unfed for 16-18 hours, after treatment by oral route, once per day for four days, with the compounds to be evaluated or their administration vehicle.
These metabolic parameters are measured by spectrophotometry at the beginning and the end of each animal's treatment.

[4] = biological target: T3, human PPARα (Homo sapiens, UniProt Q07869); assay: Reporter gene transactivation, hPPAR-GAL4 alpha; format: cell-based; conditions: transfected Cos-7 cells, Gal-4 luciferase reporter, 24 hours treatment
T3 construct: expressed in transfected cells; host or cells: Cos-7 cells (ATCC, CRL-1651)
T3 sequence (Q07869 239-466 limits assumed): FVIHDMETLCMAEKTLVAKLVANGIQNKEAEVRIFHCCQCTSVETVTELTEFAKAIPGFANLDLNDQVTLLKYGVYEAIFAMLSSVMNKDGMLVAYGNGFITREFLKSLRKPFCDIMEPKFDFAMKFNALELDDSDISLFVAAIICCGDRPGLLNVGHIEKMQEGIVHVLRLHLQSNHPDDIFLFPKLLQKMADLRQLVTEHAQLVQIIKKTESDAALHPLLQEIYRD

[5] = at 10 mg/kg, read-out: Plasma cholesterol
[6] = at 2.5 mg/kg, read-out: Plasma cholesterol
[7] = at 10 mg/kg, read-out: Plasma triglycerides

CCOC(=O)C(C)(C)Oc1ccc(OCCNc2nn(CCCC(F)(F)F)c(=O)n(CCCC(F)(F)F)c2=O)cc1 [Example 41, Ethyl 2-(4-{2-[3,5-dioxo-2,4-bis-(4,4,4-trifluoro-butyl)-2,3,4,5-tetrahydro-[1,2,4]triazin-6-ylamino]-ethoxy}-phenoxy)-2-methyl-propionate]
EC50 [1]: 1 to 3 µM | EC50 [2]: ~10 µM | change in vivo at 10 mg/kg [3, 5]: -28% | Plasma triglycerides ([3]; at 10 mg/kg): inactive at 10 | EC50 [4]: ~100 nM

CCCCn1nc(OCCCCCc2cccc(OC(C)(C)C(=O)OCC)c2)c(=O)n(CCCC)c1=O [Example 13, Ethyl 2-{3-[5-(2,4-dibutyl-3,5-dioxo-2,3,4,5-tetrahydro-[1,2,4]triazin-6-yloxy)-pentyl]-phenoxy}-2-methyl-propionate]
EC50 [1]: ~3 µM | EC50 [2]: 0.1 to 0.3 µM | change in vivo at 2.5 mg/kg [3, 6]: -8% | change in vivo at 10 mg/kg [3, 5]: -12% | change in vivo at 10 mg/kg [3, 7]: -28% | Plasma triglycerides ([3]; at 2.5 mg/kg): inactive at 2.5 | EC50 [4]: 10 to 30 nM

CCCCCCCN(CCc1ccc(OC(C)(C)C(=O)O)cc1)c1nn(C)c(=O)n(C)c1=O [Example 113, 2-(4-{2-[(2,4-Dimethyl-3,5-dioxo-2,3,4,5-tetrahydro-[1,2,4]triazin-6-yl)-heptyl-amino]-ethyl}-phenoxy)-2-methyl-propionic Acid]
EC50 [1]: 0.3 to 1 µM | EC50 [2]: 3 to 10 µM | change in vivo at 2.5 mg/kg [3, 6]: -30% | change in vivo at 10 mg/kg [3, 5]: -40% | change in vivo at 10 mg/kg [3, 7]: -26% | Plasma triglycerides ([3]; at 2.5 mg/kg): inactive at 2.5 | EC50 [4]: 300 to 1000 nM

CCCCCCCn1nc(NCCOc2ccc(OC(C)(C)C(=O)OCC)cc2)c(=O)n(C)c1=O [Example 40, Ethyl 2-{4-[2-(2-heptyl-4-methyl-3,5-dioxo-2,3,4,5-tetrahydro-[1,2,4]triazin-6-ylamino)-ethoxy]-phenoxy}-2-methyl-propionate]
EC50 [1]: > 10 µM | EC50 [2]: ~10 µM | EC50 [4]: 3000 to 10000 nM

CCOC(=O)C(C)(C)Oc1cccc(CCCCNc2nn(CCCC(F)(F)F)c(=O)n(CC=C(C)C)c2=O)c1 [Example 76, Ethyl 2-methyl-2-(3-{4-[4-(3-methyl-but-2-enyl)-3,5-dioxo-2-(4,4,4-trifluoro-butyl)-2,3,4,5-tetrahydro-[1,2,4]triazin-6-ylamino]-butyl}-phenoxy)-propionate]
EC50 [1]: 3 to 10 µM | EC50 [2]: 1 to 3 µM | change in vivo at 2.5 mg/kg [3, 6]: -16% | change in vivo at 10 mg/kg [3, 5]: -22% | change in vivo at 10 mg/kg [3, 7]: -7% | EC50 [4]: 10 to 30 nM

CCOC(=O)C(C)(C)Oc1cccc(CCCCNc2nn(CCCC(F)(F)F)c(=O)n(CCCC(F)(F)F)c2=O)c1 [Example 80, Ethyl 2-(3-{4-[3,5-dioxo-2,4-bis-(4,4,4-trifluoro-butyl)-2,3,4,5-tetrahydro-[1,2,4]triazin-6-ylamino]-butyl}-phenoxy)-2-methyl-propionate]
EC50 [1]: > 10 µM | EC50 [2]: 0.3 to 1 µM | change in vivo at 10 mg/kg [3, 5]: -16% | Plasma triglycerides ([3]; at 10 mg/kg): inactive at 10 | EC50 [4]: 10 to 30 nM

CCCCCCCn1nc(OCCCc2ccc(OC(C)(C)C(=O)OCC)cc2)c(=O)n(C)c1=O [Example 27, Ethyl 2-{4-[3-(2-heptyl-4-methyl-3,5-dioxo-2,3,4,5-tetrahydro-[1,2,4]triazin-6-yloxy)-propyl]-phenoxy}-2-methyl-propionate]
EC50 [1]: 3 to 10 µM | EC50 [2]: 3 to 10 µM | EC50 [4]: ~3000 nM

Cn1nc(NCCCCc2cccc(SC(C)(C)C(=O)O)c2)c(=O)n(CCCC(F)(F)F)c1=O [Example 96, 2-Methyl-2-(3-{4-[2-methyl-3,5-dioxo-4-(4,4,4-trifluoro-butyl)-2,3,4,5-tetrahydro-[1,2,4]triazin-6-ylamino]-butyl}-phenylsulfanyl)-propionic Acid]
EC50 [1]: > 10 µM | EC50 [2]: ~10 µM | change in vivo at 2.5 mg/kg [3, 6]: -28% | change in vivo at 2.5 mg/kg ([3]; at 2.5 mg/kg, read-out: Plasma triglycerides): -26% | change in vivo at 10 mg/kg [3, 5]: -21% | change in vivo at 10 mg/kg [3, 7]: -60% | EC50 [4]: 30 to 100 nM

CCOC(=O)C(C)(C)Oc1cccc(CCCNc2nn(CCCC(F)(F)F)c(=O)n(CCCC(F)(F)F)c2=O)c1 [Example 66, Ethyl 2-(3-{3-[3,5-dioxo-2,4-bis-(4,4,4-trifluoro-butyl)-2,3,4,5-tetrahydro-[1,2,4]triazin-6-ylamino]-propyl}-phenoxy)-2-methyl-propionate]
EC50 [1]: ~10 µM | EC50 [2]: > 10 µM | change in vivo at 10 mg/kg [3, 5]: -9% | Plasma triglycerides ([3]; at 10 mg/kg): inactive at 10 | EC50 [4]: 30 to 100 nM

CCCCCCCn1nc(OCCCCc2ccc(OC(C)(C)C(=O)OCC)cc2)c(=O)n(C)c1=O [Example 29, Ethyl 2-{4-[4-(2-heptyl-4-methyl-3,5-dioxo-2,3,4,5-tetrahydro-[1,2,4]triazin-6-yloxy)-butyl]-phenoxy}-2-methyl-propionate]
EC50 [1]: 3 to 10 µM | EC50 [2]: 3 to 10 µM | EC50 [4]: 3000 to 10000 nM

CCCCn1c(=O)c(OCCCCCc2cccc(OC(C)(C)C(=O)OCC)c2)nn(CCCC(F)(F)F)c1=O [Example 14, Ethyl 2-(3-{5-[4-Butyl-3,5-dioxo-2-(4,4,4-trifluoro-butyl)-2,3,4,5-tetrahydro-[1,2,4]triazin-6-yloxy]-pentyl}-phenoxy)-2-methyl-propionate]
EC50 [1]: ~10 µM | EC50 [2]: ~1 µM | EC50 [4]: 10 to 30 nM

CCCCCCCN(CCc1ccc(OC(C)(C)C(=O)OCC)cc1)c1nn(C)c(=O)n(C)c1=O [Example 112, Ethyl 2-(4-{2-[(2,4-dimethyl-3,5-dioxo-2,3,4,5-tetrahydro-[1,2,4]triazin-6-yl)-heptyl-amino]-ethyl}-phenoxy)-2-methyl-propionate]
EC50 [1]: 1 to 3 µM | EC50 [2]: ~10 µM | change in vivo at 10 mg/kg [3, 5]: -43% | change in vivo at 10 mg/kg [3, 7]: -31% | EC50 [4]: 1000 to 3000 nM

CCOC(=O)C(C)(C)Oc1ccc(OCCCOc2nn(CCCC(F)(F)F)c(=O)n(CCCC(F)(F)F)c2=O)cc1 [Example 39, Ethyl 2-(4-{3-[3,5-dioxo-2,4-bis-(4,4,4-trifluoro-butyl)-2,3,4,5-tetrahydro-[1,2,4]triazin-6-yloxy]-propoxy}-phenoxy)-2-methyl-propionate]
EC50 [1]: ~3 µM | EC50 [2]: 3 to 10 µM | EC50 [4]: 100 to 300 nM

CCCCCCCn1c(=O)c(OCCCCc2ccc(OC(C)(C)C(=O)OCC)cc2)nn(CCCC(F)(F)F)c1=O [Example 31, Ethyl 2-(4-{4-[4-heptyl-3,5-dioxo-2-(4,4,4-trifluoro-butyl)-2,3,4,5-tetrahydro-[1,2,4]triazin-6-yloxy]-butyl}-phenoxy)-2-methyl-propionate]
EC50 [1]: 3 to 10 µM | EC50 [2]: ~1 µM | EC50 [4]: ~100 nM

CCCCCCCn1c(=O)c(NCCCCc2cccc(OC(C)(C)C(=O)OCC)c2)nn(Cc2ccccc2)c1=O [Example 89, Ethyl 2-{3-[4-(2-benzyl-4-heptyl-3,5-dioxo-2,3,4,5-tetrahydro-[1,2,4]triazin-6-ylamino)-butyl]-phenoxy}-2-methyl-propionate]
EC50 [1]: 3 to 10 µM | EC50 [2]: 1 to 3 µM | EC50 [4]: > 10000 nM

CCCCCCCn1nc(NCCCCc2cccc(OC(C)(C)C(=O)O)c2)c(=O)n(CCCC(F)(F)F)c1=O [Example 84, 2-(3-{4-[2-Heptyl-3,5-dioxo-4-(4,4,4-trifluoro-butyl)-2,3,4,5-tetrahydro-[1,2,4]triazin-6-ylamino]-butyl}-phenoxy)-2-methyl-propionic Acid]
EC50 [1]: 1 to 3 µM | EC50 [2]: ~0.3 µM | change in vivo at 10 mg/kg [3, 5]: -13% | change in vivo at 10 mg/kg [3, 7]: -7% | Plasma cholesterol ([3]; at 2.5 mg/kg): inactive at 2.5 | Plasma triglycerides ([3]; at 2.5 mg/kg): inactive at 2.5 | EC50 [4]: 3 to 10 nM
